According to ChEMBL document CHEMBL2040736, “Design of potent and selective hybrid inhibitors of the mitotic kinase Nek2: structure-activity relationship, structural biology, and cellular activity” (J Med Chem, 2012):

Legend:
[1] = target: MAP kinase-activated protein kinase 2 (Homo sapiens) (UniProt P49137); assay: Inhibition of MAPKAPK2 at 1 uM incubated for 30 mins prior to substrate addition study done at apparent ATP Km for enzyme
[2] = target: T1, Aurora kinase A (Homo sapiens, UniProt O14965); assay: Inhibition of Aurora A kinase by caliper method
T1 sequence (O14965 whole entry): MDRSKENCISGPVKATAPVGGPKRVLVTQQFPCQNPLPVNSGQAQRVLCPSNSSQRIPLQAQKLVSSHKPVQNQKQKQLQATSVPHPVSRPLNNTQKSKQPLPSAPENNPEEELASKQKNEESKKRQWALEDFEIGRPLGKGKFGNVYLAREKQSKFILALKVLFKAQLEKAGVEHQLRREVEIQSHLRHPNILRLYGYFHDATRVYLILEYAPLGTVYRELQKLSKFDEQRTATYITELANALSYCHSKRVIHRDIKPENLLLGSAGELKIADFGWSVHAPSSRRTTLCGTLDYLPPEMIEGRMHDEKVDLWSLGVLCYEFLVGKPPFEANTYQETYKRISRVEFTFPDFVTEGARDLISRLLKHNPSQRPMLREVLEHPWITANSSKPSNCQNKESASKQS

[3] = target: Tyrosine-protein kinase Lck (Homo sapiens, UniProt P06239); assay: Inhibition of LCK incubated for 30 mins prior to substrate addition study done at apparent ATP Km for enzyme
[4] = target: Serine/threonine-protein kinase D2 (Homo sapiens) (UniProt Q9BZL6); assay: Inhibition of PKD2 at 1 uM incubated for 30 mins prior to substrate addition study done at apparent ATP Km for enzyme
[5] = target: Serine/threonine-protein kinase D2 (Homo sapiens, UniProt Q9BZL6); assay: Inhibition of PKD2 incubated for 30 mins prior to substrate addition study done at apparent ATP Km for enzyme
[6] = Inhibition of CH1D at 1 uM incubated for 30 mins prior to substrate addition study done at apparent ATP Km for enzyme
[7] = target: T2, Tyrosine-protein kinase Lyn (Homo sapiens, UniProt P07948); assay: Inhibition of LYN at 1 uM incubated for 30 mins prior to substrate addition study done at apparent ATP Km for enzyme
Target sequence in this assay (P07948 2-512 limits assumed): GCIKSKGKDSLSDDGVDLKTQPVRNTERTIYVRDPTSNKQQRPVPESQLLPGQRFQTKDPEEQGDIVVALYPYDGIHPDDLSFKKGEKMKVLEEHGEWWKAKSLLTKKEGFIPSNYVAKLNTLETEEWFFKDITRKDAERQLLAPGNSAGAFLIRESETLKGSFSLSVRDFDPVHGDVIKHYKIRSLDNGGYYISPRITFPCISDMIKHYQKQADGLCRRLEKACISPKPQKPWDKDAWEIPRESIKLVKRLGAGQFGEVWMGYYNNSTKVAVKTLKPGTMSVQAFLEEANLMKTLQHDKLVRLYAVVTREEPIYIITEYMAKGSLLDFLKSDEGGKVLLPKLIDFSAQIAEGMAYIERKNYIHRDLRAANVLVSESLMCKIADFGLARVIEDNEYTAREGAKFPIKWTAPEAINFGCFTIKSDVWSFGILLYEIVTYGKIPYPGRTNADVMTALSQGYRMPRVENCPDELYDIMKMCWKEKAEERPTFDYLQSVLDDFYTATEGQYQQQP

[8] = target: T3, Serine/threonine-protein kinase Chk2 (Homo sapiens, UniProt O96017); assay: Inhibition of CHK2 incubated for 30 mins prior to substrate addition study done at apparent ATP Km for enzyme
T3 sequence (O96017 whole entry): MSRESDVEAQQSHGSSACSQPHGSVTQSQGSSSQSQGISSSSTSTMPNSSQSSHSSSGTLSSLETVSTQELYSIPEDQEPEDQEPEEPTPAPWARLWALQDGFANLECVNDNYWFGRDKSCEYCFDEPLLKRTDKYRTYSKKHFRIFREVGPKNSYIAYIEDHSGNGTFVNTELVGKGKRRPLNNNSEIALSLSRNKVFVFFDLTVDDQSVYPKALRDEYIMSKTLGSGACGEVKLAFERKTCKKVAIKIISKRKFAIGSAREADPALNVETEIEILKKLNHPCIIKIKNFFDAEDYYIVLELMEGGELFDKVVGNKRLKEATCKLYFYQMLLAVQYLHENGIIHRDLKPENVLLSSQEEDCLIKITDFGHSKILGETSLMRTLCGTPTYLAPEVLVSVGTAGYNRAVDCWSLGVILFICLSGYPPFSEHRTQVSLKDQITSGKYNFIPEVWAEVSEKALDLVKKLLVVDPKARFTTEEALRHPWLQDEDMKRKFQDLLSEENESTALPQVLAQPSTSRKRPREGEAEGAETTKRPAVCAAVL

[9] = target: T4, Tyrosine-protein kinase ABL1 (Homo sapiens, UniProt P00519); assay: Inhibition of ABL at 1 uM incubated for 30 mins prior to substrate addition study done at apparent ATP Km for enzyme
T4 sequence (P00519 whole entry): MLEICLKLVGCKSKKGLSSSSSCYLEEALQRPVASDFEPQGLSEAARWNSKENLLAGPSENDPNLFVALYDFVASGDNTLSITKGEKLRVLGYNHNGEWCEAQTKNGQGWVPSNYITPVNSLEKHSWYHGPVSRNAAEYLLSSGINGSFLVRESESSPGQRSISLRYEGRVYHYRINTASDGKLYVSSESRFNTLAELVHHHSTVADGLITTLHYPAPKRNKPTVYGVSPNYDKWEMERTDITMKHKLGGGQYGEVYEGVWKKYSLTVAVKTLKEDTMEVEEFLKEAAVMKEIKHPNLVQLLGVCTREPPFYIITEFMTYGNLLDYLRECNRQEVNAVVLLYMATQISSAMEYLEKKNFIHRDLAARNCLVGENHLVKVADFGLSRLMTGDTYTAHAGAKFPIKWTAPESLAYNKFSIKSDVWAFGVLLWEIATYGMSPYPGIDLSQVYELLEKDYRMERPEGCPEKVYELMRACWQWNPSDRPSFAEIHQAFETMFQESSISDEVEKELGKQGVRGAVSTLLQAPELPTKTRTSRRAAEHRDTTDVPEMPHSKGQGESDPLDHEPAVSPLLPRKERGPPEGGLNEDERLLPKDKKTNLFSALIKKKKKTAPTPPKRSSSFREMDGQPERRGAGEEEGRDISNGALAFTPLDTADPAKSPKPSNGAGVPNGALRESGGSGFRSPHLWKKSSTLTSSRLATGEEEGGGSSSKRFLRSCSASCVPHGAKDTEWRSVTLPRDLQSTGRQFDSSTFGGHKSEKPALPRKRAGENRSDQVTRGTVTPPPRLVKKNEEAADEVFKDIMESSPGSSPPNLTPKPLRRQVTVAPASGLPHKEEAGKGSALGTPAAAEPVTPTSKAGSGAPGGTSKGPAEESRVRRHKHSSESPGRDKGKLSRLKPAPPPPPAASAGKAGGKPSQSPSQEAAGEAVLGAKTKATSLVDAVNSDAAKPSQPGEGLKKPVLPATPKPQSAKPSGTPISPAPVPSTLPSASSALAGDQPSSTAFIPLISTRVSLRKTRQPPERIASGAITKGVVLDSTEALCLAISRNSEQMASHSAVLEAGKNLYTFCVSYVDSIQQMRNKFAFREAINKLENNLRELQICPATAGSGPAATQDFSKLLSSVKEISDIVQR

[10] = test system: HeLa; assay: Growth inhibition of human HeLa cells after 92 hrs by CellTiter-Blue assay; assay type: functional
[11] = target: T3, Serine/threonine-protein kinase Chk2; conditions: 1 uM
[12] = target: T5, Serine/threonine-protein kinase Nek2 (Homo sapiens, UniProt P51955)
T5 sequence (P51955 whole entry): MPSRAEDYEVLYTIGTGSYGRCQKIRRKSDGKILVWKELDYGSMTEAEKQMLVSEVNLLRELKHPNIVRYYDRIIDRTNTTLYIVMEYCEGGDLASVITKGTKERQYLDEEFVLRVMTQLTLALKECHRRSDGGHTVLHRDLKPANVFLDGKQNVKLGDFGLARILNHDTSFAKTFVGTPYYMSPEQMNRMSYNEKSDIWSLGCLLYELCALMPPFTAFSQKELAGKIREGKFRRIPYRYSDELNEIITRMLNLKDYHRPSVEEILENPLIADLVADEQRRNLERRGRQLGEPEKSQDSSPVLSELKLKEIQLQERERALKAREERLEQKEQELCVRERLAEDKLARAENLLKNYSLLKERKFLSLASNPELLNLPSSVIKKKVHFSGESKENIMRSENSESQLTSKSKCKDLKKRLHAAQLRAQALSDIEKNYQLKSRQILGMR
Description: Inhibition of Nek2-mediated C-Nap1 phosphorylation in human U2OS cells after 3 hrs by immunofluorescence microscopy

[13] = target: MAP kinase-activated protein kinase 5 (Homo sapiens) (UniProt Q8IW41); assay: Inhibition of PRAK at 1 uM incubated for 30 mins prior to substrate addition study done at apparent ATP Km for enzyme
Sequence of MAP kinase-activated protein kinase 5 (Homo sapiens) (Q8IW41 whole entry): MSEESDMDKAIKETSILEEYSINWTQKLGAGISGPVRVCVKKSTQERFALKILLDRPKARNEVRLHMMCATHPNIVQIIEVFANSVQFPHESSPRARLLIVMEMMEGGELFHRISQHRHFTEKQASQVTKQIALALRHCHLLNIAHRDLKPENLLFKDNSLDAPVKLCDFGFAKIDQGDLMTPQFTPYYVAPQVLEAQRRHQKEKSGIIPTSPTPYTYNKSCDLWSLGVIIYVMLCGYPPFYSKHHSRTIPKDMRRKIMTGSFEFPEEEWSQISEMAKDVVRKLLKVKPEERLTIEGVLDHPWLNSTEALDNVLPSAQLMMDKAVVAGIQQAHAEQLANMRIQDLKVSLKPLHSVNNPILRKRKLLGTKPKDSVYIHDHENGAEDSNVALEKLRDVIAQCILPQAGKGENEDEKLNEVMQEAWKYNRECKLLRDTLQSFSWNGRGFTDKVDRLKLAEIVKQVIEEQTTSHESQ

[14] = target: Insulin receptor (Homo sapiens) (UniProt P06213); assay: Inhibition of INSR at 1 uM incubated for 30 mins prior to substrate addition study done at apparent ATP Km for enzyme
[15] = target: Glycogen synthase kinase-3 beta (Homo sapiens, UniProt P49841); assay: Inhibition of GSK3beta incubated for 30 mins prior to substrate addition study done at apparent ATP Km for enzyme
Sequence of Glycogen synthase kinase-3 beta (P49841 whole entry): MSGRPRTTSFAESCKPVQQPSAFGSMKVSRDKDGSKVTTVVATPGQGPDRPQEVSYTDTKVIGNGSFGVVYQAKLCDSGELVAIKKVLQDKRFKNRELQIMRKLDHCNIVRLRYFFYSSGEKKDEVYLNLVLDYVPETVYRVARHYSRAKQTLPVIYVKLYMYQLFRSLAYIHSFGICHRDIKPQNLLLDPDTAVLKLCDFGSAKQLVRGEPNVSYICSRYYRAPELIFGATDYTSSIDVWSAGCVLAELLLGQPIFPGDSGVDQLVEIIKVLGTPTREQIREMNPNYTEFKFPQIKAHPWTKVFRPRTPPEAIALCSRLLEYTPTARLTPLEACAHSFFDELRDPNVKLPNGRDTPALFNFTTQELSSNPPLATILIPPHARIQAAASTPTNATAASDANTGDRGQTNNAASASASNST

[16] = target: Protein kinase C zeta type (Homo sapiens) (UniProt Q05513); assay: Inhibition of PKCzeta at 1 uM incubated for 30 mins prior to substrate addition study done at apparent ATP Km for enzyme
[17] = target: Mitogen-activated protein kinase 3 (Homo sapiens) (UniProt P27361); assay: Inhibition of Erk1 at 1 uM incubated for 30 mins prior to substrate addition study done at apparent ATP Km for enzyme
Sequence of Mitogen-activated protein kinase 3 (Homo sapiens) (P27361 whole entry): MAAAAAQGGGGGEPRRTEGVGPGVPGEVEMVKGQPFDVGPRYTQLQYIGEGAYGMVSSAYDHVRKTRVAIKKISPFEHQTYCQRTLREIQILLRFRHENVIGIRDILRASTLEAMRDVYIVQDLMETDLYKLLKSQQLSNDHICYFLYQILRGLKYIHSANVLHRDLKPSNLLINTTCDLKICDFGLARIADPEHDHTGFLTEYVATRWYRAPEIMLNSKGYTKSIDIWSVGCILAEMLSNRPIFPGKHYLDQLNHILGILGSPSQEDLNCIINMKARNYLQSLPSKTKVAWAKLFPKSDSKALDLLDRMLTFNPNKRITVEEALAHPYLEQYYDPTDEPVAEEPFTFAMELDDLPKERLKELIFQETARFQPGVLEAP

[18] = target: Proto-oncogene tyrosine-protein kinase Src (Homo sapiens, UniProt P12931); conditions: 1 uM
[19] = target: T2, Tyrosine-protein kinase Lyn; assay: Inhibition of LYN incubated for 30 mins prior to substrate addition study done at apparent ATP Km for enzyme
Target sequence in this assay (P07948 whole entry): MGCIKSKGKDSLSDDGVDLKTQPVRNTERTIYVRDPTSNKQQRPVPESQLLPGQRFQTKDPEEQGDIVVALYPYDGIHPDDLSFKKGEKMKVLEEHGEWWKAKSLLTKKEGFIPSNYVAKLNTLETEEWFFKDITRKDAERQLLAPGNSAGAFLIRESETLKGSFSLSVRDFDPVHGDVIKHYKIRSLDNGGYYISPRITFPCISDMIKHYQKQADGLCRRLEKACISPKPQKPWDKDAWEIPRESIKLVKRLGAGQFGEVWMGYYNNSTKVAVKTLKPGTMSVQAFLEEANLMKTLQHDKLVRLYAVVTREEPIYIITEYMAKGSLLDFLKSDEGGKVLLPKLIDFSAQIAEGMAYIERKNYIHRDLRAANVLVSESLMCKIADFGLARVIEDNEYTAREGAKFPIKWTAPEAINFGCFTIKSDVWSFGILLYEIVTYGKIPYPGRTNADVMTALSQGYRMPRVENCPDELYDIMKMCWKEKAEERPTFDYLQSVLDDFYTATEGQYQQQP

[20] = Inhibition of CH1D incubated for 30 mins prior to substrate addition study done at apparent ATP Km for enzyme
[21] = test system: U2OS; assay: Growth inhibition of human U2OS cells after 92 hrs by CellTiter-Blue assay; assay type: functional
[22] = target: T5, Serine/threonine-protein kinase Nek2; remark: listed apart in the source
[23] = target: T4, Tyrosine-protein kinase ABL1; assay: Inhibition of ABL at 1 uM
[24] = target: T6, Tyrosine-protein kinase Fyn (Homo sapiens, UniProt P06241); assay: Inhibition of FYN at 1 uM incubated for 30 mins prior to substrate addition study done at apparent ATP Km for enzyme
[25] = target: T6, Tyrosine-protein kinase Fyn; assay: Inhibition of FYN incubated for 30 mins prior to substrate addition study done at apparent ATP Km for enzyme
[26] = target: Hepatocyte growth factor receptor (Homo sapiens, UniProt P08581); assay: Inhibition of MET incubated for 30 mins prior to substrate addition study done at apparent ATP Km for enzyme
[27] = target: Mitogen-activated protein kinase 14 (Homo sapiens) (UniProt Q16539); assay: Inhibition of p38alpha at 1 uM incubated for 30 mins prior to substrate addition study done at apparent ATP Km for enzyme
[28] = test system: MDA-MB-231; assay: Growth inhibition of human MDA-MB-231 cells after 92 hrs by CellTiter-Blue assay; assay type: functional; conditions: MDA-MB-231, 92 h
[29] = target: Serine/threonine-protein kinase Chk1 (Homo sapiens) (UniProt O14757); assay: Inhibition of CHK1 at 1 uM incubated for 30 mins prior to substrate addition study done at apparent ATP Km for enzyme
[30] = target: RAC-alpha serine/threonine-protein kinase (Homo sapiens) (UniProt P31749); assay: Inhibition of AKT1 at 1 uM incubated for 30 mins prior to substrate addition study done at apparent ATP Km for enzyme
Sequence of RAC-alpha serine/threonine-protein kinase (Homo sapiens) (P31749 whole entry): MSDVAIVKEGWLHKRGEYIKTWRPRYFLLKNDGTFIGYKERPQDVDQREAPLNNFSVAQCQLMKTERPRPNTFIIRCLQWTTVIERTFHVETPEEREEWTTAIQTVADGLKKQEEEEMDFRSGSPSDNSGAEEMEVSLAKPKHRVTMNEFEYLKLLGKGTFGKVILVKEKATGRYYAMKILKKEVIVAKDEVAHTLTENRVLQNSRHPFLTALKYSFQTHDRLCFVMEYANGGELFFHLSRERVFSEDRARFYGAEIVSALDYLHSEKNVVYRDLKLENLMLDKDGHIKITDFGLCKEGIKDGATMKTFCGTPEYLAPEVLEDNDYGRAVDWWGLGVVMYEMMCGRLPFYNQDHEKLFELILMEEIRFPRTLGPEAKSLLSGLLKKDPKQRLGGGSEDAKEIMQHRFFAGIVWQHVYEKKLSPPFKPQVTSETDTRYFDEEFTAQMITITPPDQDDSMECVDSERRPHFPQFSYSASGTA

Sequence of MAP kinase-activated protein kinase 2 (Homo sapiens) (P49137 whole entry, looked up): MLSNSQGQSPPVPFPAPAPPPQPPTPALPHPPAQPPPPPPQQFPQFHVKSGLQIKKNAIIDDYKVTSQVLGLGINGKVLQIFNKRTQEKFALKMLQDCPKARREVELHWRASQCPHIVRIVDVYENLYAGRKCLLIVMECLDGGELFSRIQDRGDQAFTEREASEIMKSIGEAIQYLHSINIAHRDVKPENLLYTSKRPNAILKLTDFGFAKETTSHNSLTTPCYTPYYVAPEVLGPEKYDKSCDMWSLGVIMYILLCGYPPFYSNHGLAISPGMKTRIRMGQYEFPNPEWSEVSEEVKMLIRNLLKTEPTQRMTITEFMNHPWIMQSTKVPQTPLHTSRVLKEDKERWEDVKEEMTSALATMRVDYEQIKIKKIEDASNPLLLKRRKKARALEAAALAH

Structure (SMILES): C[C@H](/C=C\C(F)(F)F)Oc1cc(-c2cc(-c3cc(CN(C)C)cs3)cnc2N)ccc1C(N)=O
- inhibition [1]: 6%
- IC50 [2]: 4.94 µM
- IC50 [3]: 0.11 µM
- inhibition [4]: 77%
- IC50 [5]: 0.33 µM
- inhibition [6]: 67%
- inhibition [7]: 43%
- IC50 [8]: 2 µM
- inhibition [9]: 46%
- GI50 [10]: 0.59 µM
- inhibition [11]: 32%
- IC50 [12]: 0.8 µM
- inhibition [13]: 7%
- inhibition [14]: 0%
- IC50 [15]: 0.07 µM
- inhibition [16]: 12%
- inhibition [17]: 2%
- inhibition [18]: 51%
- IC50 [19]: 1.36 µM
- IC50 [20]: 0.43 µM
- GI50 [21]: 1.82 µM
- IC50 [22]: 0.022 µM
- IC50 [23]: 1.11 µM
- inhibition [24]: 57%
- IC50 [25]: 0.75 µM
- IC50 [26]: 1.17 µM
- inhibition [27]: 0%
- GI50 [28]: 4.16 µM
- inhibition [29]: 11%
- inhibition [30]: 3%
